From patent publication US20150209379A1, “TREATMENT OF PROSTATE CANCER AND HEMATOLOGIC NEOPLASMS” (THOMAS JEFFERSON UNIVERSITY, priority 2012, published 2015) come the findings set out here.

The target of the assay is T1, Stat5a (Homo sapiens, UniProt P42229).
T1 sequence (P42229 1-794): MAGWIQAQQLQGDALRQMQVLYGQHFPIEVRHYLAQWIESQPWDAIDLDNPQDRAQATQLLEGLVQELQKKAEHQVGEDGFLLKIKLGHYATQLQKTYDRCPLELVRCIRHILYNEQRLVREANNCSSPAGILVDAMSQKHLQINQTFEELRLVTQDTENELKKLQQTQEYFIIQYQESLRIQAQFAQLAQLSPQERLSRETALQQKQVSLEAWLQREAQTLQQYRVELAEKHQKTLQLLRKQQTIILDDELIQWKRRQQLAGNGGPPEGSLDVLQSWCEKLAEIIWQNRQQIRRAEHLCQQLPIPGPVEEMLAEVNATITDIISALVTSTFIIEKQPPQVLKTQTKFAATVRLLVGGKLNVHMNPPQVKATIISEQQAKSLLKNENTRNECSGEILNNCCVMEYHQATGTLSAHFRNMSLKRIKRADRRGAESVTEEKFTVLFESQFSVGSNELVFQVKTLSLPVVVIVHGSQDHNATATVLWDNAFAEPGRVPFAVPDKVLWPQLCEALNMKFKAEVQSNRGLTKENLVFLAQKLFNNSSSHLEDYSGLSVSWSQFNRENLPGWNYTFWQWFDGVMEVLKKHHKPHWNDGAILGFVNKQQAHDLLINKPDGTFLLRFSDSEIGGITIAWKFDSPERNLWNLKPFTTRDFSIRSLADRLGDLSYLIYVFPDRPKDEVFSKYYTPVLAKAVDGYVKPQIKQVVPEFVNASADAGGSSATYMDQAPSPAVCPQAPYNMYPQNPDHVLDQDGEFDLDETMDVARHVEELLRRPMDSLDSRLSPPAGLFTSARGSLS
The experiment in a line: Stat5a dimerization (FLAG-/MYC-tagged Stat5a co-immunoprecipitation) in PC-3 cells. It is filed as cell-based. Particulars: 2 hours pretreatment, then hPrl 10 nM 30 minutes. Set-up: expressed in transfected cells; host or cells: PC-3 human prostate cancer cells. As for the experimental part: (§1) FLAG-tagged Stat5a and MYC-tagged Stat5a were generated by standard molecular biology cloning techniques. Plasmid pCMV3-FLAG-Stat5a, pCMV3-MYC-Stat5a and pPr1R were co-transfected using FuGENE6 (Roche) into PC-3 cells (2 μg of each plasmid per 1×10^7 cells). The cells were starved for 20 hours, pretreated with test compound for 2 hours, then stimulated with hPrl (10 nM) in RPMI 1640 without serum for 30 minutes. The cell lysates were immunoprecipitated with 25 μl anti-FLAG M2 […] affinity gel (2 μg/ml, Sigma), anti-MYC pAb (1 μg/ml, Upstate) or normal rabbit serum (NRS). The primary antibodies were used in the immunoblottings at the following concentrations: anti-FLAG pAb (1:1000; Stratagene), anti-MYC mAb (1:1000; Sigma), anti-Stat5a/b mAb (1:250) (Transduction Laboratories) detected by horseradish peroxidase-conjugated secondary antibodies. The results are shown in FIG. 3A for Compound 1 and FIG. 3B for Compound 2.
Lanes 1, 2, 4, 6 and 8 represent cells stimulated with human prolactin (Prl) for 30 minutes which induces dimerization of Stat5. Two hours prior to Prl-stimulation, the cells had been treated with DMSO (lanes 1-4), the control compound C5 (lanes 7 and 8) and either Compound 1 (lanes 5 and 6 in FIG. 3A) or Compound 2 (lanes 5 and 6 in FIG. 3B). […] It should be noted the drug effect in this study was not due to cell apoptosis induction, as the treatment time was only 2 hours. Treatment of at least 48 hours is required for the compound to induce prostate cancer cell apoptosis.
as §1, with “and pPrlR” for “and pPr1R”, “hours, pre-treated” for “hours, pretreated”, “with NBPP” for “with test compound”, “2 h,” for “2 hours,”, “antibodies.” for “antibodies. The results are shown in FIG. 3A for Compound 1 and FIG. 3B for Compound 2.”
Lanes 1, 2, 4, 6 and 8 represent cells stimulated with human prolactin (Prl) for 30 minutes which induces dimerization of Stat5. Two hours prior to Prl-stimulation, the cells had been treated with DMSO (lanes 1-4), the control compound C5 (lanes 5 and 6) or NBPP (lanes 7 and 8) to test whether the Stat5a/b-inhibitor compound, NBPP, would be able to inhibit dimerization of StatS. […] It should be noted the drug effect in this study was not due to cell apoptosis induction, as the treatment time was only 2 hours. Treatment of at least 48 hours is required for the compound to induce prostate cancer cell apoptosis.
FLAG-tagged Stat5a and MYC-tagged Stat5a were generated by standard molecular biology cloning techniques.as follows. […] The primary antibodies were used in the immunoblottings at the following concentrations: anti-FLAG pAb (1:1000; Stratagene), anti-MYC mAb (1:1000; Sigma), anti-Stat5a/b mAb (1:250) (Transduction Laboratories) detected by horseradish peroxidase-conjugated secondary antibodies. […]

Turning to `Nc1nc(SCc2cccnc2)[nH]c(=O)c1NC(=O)c1ccco1` [Compound C5, reference compound], the “effect on Stat5a dimerization” value was “did not inhibit dimerization of Stat5a”.
